Test results as given in patent publication US20050154230A1, “Urea derivatives” (Bayer HealthCare AG, priority 2001, published 2005).
Read-outs that look alike come from different tables or passages of the source.

How the values were obtained:
[1] = target: T1, human VR1 (Homo sapiens, UniProt Q8NER1); assay: Capsaicin-induced Ca2+ influx in the human VR1-transfected CHO cell line (Assay 1); format: cell-based
T1 construct: expressed in transfected cells
Description: [Measurement of Capsaicin-Induced Ca^2+ Influx in the Human VR1-Transfected CHO Cell Line] (Assay 1)
(1) Establishment of the Human VR1-CHOluc9aeq Cell Line
The cloned hVR1 cDNA was constructed with pcDNA3 vector and transfected into a CHOluc9aeq cell line. The cell line contains aequorin and CRE-luciferase reporter genes as read-out signals. The transfectants were cloned by limiting dilution in selection medium (DMEM/F12 medium (Gibco BRL) supplemented with 10% FCS, 1.4 mM Sodium pyruvate, 20 mM HEPES, 0.15% Sodium bicarbonate, 100 U/ml penicillin, 100 μg/ml streptomycin, 2 mM glutamine, non-essential amino acids and 2 mg/ml G418). Ca^2+ influx was examined in the capsaicin-stimulated clones. […] The human VR1-CHOluc9aeq cells were maintained in the selection medium and passaged every 3-4 days at 1-2.5×10^5 cells/flask ([…]).
(2) Measurement of Ca^2+ Influx Using FDSS-3000
Human VR1-CHOluc9aeq cells were suspended in a culture medium which is the same as the selection medium except for G418 and seeded at a density of 1,000 cells per well into 384-well plates (black walled clear-base/Nalge Nunc International). […] After washing twice with assay buffer the cells were incubated with a test compound or vehicle for 20 min at 25° C. […] Integral R was calculated and compared with controls.

[2] = human VR1-CHOluc9aeq cells, 10 nM capsaicin, compound purity about 40 to 90%, read-out: Activity grade
[3] = human VR1-CHOluc9aeq cells, 10 nM capsaicin, compound purity about 40 to 90%, read-out: hVR1 class

T1 sequence (Q8NER1 whole entry): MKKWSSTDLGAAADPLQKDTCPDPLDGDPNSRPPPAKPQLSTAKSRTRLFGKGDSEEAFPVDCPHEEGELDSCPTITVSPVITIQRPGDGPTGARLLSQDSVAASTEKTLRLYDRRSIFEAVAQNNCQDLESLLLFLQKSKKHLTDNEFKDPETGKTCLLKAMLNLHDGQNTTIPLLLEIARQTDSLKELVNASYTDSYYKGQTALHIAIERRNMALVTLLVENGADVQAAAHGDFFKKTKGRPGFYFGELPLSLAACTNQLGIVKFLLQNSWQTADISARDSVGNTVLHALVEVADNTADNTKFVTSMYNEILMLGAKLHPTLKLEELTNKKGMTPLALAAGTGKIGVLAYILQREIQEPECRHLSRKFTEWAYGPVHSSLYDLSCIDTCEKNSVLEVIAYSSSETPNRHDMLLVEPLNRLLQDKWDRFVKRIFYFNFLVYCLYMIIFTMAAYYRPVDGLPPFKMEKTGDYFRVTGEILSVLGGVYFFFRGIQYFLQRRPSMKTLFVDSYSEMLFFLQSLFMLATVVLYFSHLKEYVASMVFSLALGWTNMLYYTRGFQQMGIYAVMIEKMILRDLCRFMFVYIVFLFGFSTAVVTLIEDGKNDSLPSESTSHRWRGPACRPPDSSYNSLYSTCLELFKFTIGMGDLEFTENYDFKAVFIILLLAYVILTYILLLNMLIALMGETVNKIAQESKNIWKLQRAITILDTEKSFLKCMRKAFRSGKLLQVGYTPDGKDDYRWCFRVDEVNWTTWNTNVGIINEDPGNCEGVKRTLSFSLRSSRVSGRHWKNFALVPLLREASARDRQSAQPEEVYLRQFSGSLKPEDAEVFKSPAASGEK

## COc1cc(CNC(=O)Nc2ccc(C(C)C)cc2)ccc1O [Example 1-1, N-(4-hydroxy-3-methoxybenzyl)-N′-(4-isopropylphenyl)urea]
[1]
  IC50: < 0.1 µM
other
  melting point: 156 °C

## O=C(Nc1ccc(Cl)c(Cl)c1)Nc1ccccc1CCO [Example 1-2, N-(3,4-dichlorophenyl)-N′-[2-(2-hydroxyethyl)phenyl]urea]
[1]; [2]
  IC50: < 0.1 µM
other
  melting point: 188 to 190 °C

## COc1cc(CNC(=O)Nc2cccc(-c3ccc(Cl)cc3)c2)ccc1O [Example 2-1, N-(4′-chloro-1,1′-biphenyl-3-yl)-N′-(4-hydroxy-3 methoxybenzyl)urea]
[1]; [2]
  IC50: < 0.1 µM
other
  melting point: 153.4 °C

## O=C(Nc1cccc(-c2ccccc2)c1)Nc1ccccc1CCO [Example 3-1, N-(1,1′-biphenyl-3-yl)-N′-[2-(2-hydroxyethyl)phenyl]urea]
[1]; [2]
  IC50: < 0.1 µM
other
  melting point: 196 to 198 °C

## COc1cccc(NC(=O)NCc2ccc(O)c(OC)c2)c1 [Example 34]
[1]; [3]
  IC50: 0.5 to 1 µM
other
  melting point: 133 °C

## COc1ccc2c(c1)C(NC(=O)Nc1ccc(F)cc1)CCC2 (centres unmarked) [Example 53]
[1]; [3]
  IC50: 0.5 to 1 µM
other
  melting point: 177.5 °C

## COc1cc(CNC(=O)Nc2ccc(Cl)c(C(F)(F)F)c2)ccc1O [Example 55]
[1]; [3]
  IC50: < 0.1 µM
other
  melting point: 193 °C

## COc1cc(CNC(=O)Nc2ccc(F)cc2)ccc1O [Example 56]
[1]; [3]
  IC50: 0.5 to 1 µM
other
  melting point: 211 to 212 °C

## COc1cc(CNC(=O)Nc2ccccc2OC)ccc1O [Example 57]
[1]; [3]
  IC50: 0.5 to 1 µM
other
  melting point: 144 °C

## COc1cc(CNC(=O)Nc2ccccc2[N+](=O)[O-])ccc1O [Example 58]
[1]; [3]
  IC50: 0.5 to 1 µM
other
  melting point: 180 °C

## COc1cc(CNC(=O)Nc2c(C)cccc2C)ccc1O [Example 60]
[1]; [3]
  IC50: 0.5 to 1 µM
other
  melting point: 211 °C

## COc1cc(CNC(=O)Nc2ccc(C)cc2C)ccc1O [Example 62]
[1]; [3]
  IC50: 0.5 to 1 µM
other
  melting point: 184 °C

## COc1cc(CNC(=O)Nc2ccc(Br)cc2)ccc1O [Example 63]
[1]; [3]
  IC50: 0.1 to 0.5 µM
other
  melting point: 203 °C

## COc1cc(CNC(=O)Nc2ccc(Cl)c([N+](=O)[O-])c2)ccc1O [Example 64]
[1]; [3]
  IC50: 0.1 to 0.5 µM
other
  melting point: 180 °C

## COc1cc(CNC(=O)Nc2cc([N+](=O)[O-])ccc2F)ccc1O [Example 65]
[1]; [3]
  IC50: 0.5 to 1 µM
other
  melting point: 208 °C

## COc1cc(CNC(=O)Nc2ccc(F)c([N+](=O)[O-])c2)ccc1O [Example 66]
[1]
  IC50: 0.1 to 0.5 µM
other
  melting point: 184 °C

## COc1cc(CNC(=O)Nc2cccc3ccccc23)ccc1O [Example 70]
[1]
  IC50: < 0.1 µM
other
  melting point: 149 °C

## COc1cc(CNC(=O)Nc2ccc(Cl)c(Cl)c2)ccc1O [Example 71]
[1]; [3]
  IC50: < 0.1 µM
other
  melting point: 207 °C

## COc1cc(CNC(=O)Nc2c(C)cc(C)cc2C)ccc1O [Example 72]
[1]; [3]
  IC50: 0.5 to 1 µM
other
  melting point: 217 °C

## COc1cc2c(cc1O)CN(C(=O)Nc1ccc(Cl)c(C(F)(F)F)c1)CC2 [Example 78]
other
  melting point: 130 °C

## COc1cc(CNC(=O)Nc2cccc(C)c2)ccc1O [Example 82]
[1]
  IC50: 0.1 to 0.5 µM
other
  melting point: 181 °C

## COc1cc(CNC(=O)Nc2ccc(Cl)cc2)ccc1O [Example 83]
[1]; [3]
  IC50: < 0.1 µM
other
  melting point: 210 °C

## Nc1ccc2c(c1)C(NC(=O)Nc1ccc(Cl)c(C(F)(F)F)c1)CCC2 (centres unmarked) [Example 96]
[1]; [3]
  IC50: 0.5 to 1 µM
other
  melting point: 178 °C

## O=C(Nc1ccc(Cl)c(C(F)(F)F)c1)Nc1ccccc1CCO [Example 98]
[1]; [3]
  IC50: < 0.1 µM
other
  melting point: 175 to 177 °C

## O=C(Nc1ccc(Oc2ccccc2)cc1)Nc1ccccc1CCO [Example 99]
[1]; [3]
  IC50: < 0.1 µM
other
  melting point: 133 to 135 °C

## CCOC(=O)c1cccc(NC(=O)Nc2ccccc2CCO)c1 [Example 100]
[1]; [3]
  IC50: 0.1 to 0.5 µM
other
  melting point: 152 to 153 °C

## CC(C)c1ccc(NC(=O)Nc2ccccc2CCO)cc1 [Example 101]
[1]; [3]
  IC50: 0.1 to 0.5 µM
other
  melting point: 149 to 150 °C

## O=C(Nc1ccc2ccccc2c1)Nc1ccccc1CCO [Example 102]
[1]; [3]
  IC50: 0.1 to 0.5 µM
other
  melting point: 195 to 197 °C

## O=C(NCc1ccc(Br)cc1)Nc1ccccc1CCO [Example 103]
[1]; [3]
  IC50: 0.1 to 0.5 µM
other
  melting point: 198 to 200 °C

## O=C(Nc1ccccc1Cl)Nc1ccccc1CCO [Example 104]
[1]; [3]
  IC50: 0.5 to 1 µM
other
  melting point: 173 to 175 °C

## O=C(Nc1cccc(Cl)c1)Nc1ccccc1CCO [Example 105]
[1]; [3]
  IC50: 0.5 to 1 µM
other
  melting point: 188 to 190 °C

## O=C(Nc1ccc(Cl)cc1)Nc1ccccc1CCO [Example 106]
[1]; [3]
  IC50: 0.5 to 1 µM
other
  melting point: 185 to 187 °C

## O=C(Nc1cccc(C(F)(F)F)c1)Nc1ccccc1CCO [Example 107]
[1]; [3]
  IC50: 0.1 to 0.5 µM
other
  melting point: 173 to 175 °C

## O=C(Nc1ccc(C(F)(F)F)cc1)Nc1ccccc1CCO [Example 108]
[1]; [3]
  IC50: 0.1 to 0.5 µM
other
  melting point: 178 to 180 °C

## O=C(Nc1cc(Cl)cc(Cl)c1)Nc1ccccc1CCO [Example 109]
[1]; [3]
  IC50: 0.1 to 0.5 µM
other
  melting point: 214 to 216 °C

## O=C(Nc1ccc([N+](=O)[O-])cc1)Nc1ccccc1CCO [Example 110]
[1]; [3]
  IC50: 0.5 to 1 µM
other
  melting point: 178 °C

## O=C(Nc1ccc(F)c([N+](=O)[O-])c1)Nc1ccccc1CCO [Example 111]
[1]; [3]
  IC50: 0.5 to 1 µM
other
  melting point: 185 °C

## O=C(Nc1cc([N+](=O)[O-])ccc1F)Nc1ccccc1CCO [Example 112]
[1]; [3]
  IC50: 0.5 to 1 µM
other
  melting point: 183 °C

## O=C(Nc1ccc(Cl)c([N+](=O)[O-])c1)Nc1ccccc1CCO [Example 113]
[1]; [3]
  IC50: 0.1 to 0.5 µM
other
  melting point: 170 °C

## O=C(Nc1ccc(Br)cc1)Nc1ccccc1CCO [Example 114]
[1]; [3]
  IC50: 0.5 to 1 µM
other
  melting point: 208 °C

## Cc1cc(C)c(NC(=O)Nc2ccccc2CCO)c(C)c1 [Example 115]
[1]; [3]
  IC50: 0.5 to 1 µM
other
  melting point: 243 °C

## Cc1cccc(C)c1NC(=O)Nc1ccccc1CCO [Example 116]
[1]; [3]
  IC50: 0.5 to 1 µM
other
  melting point: 226 °C

## CC(=O)c1cccc(NC(=O)Nc2ccccc2CCO)c1 [Example 117]
[1]; [3]
  IC50: 0.5 to 1 µM
other
  melting point: 177 °C

## COC(=O)c1ccccc1NC(=O)Nc1ccccc1CCO [Example 118]
[1]; [3]
  IC50: 0.5 to 1 µM
other
  melting point: 128 °C

## O=C(NCc1ccccc1F)Nc1ccccc1CCO [Example 119]
[1]; [3]
  IC50: 0.5 to 1 µM
other
  melting point: 141 to 143 °C

## O=C(NCc1cccc(F)c1)Nc1ccccc1CCO [Example 120]
[1]; [3]
  IC50: 0.5 to 1 µM
other
  melting point: 160 to 162 °C

## O=C(NCc1ccc(F)cc1)Nc1ccccc1CCO [Example 121]
[1]; [3]
  IC50: 0.5 to 1 µM
other
  melting point: 165 to 167 °C

## CN(C)c1ccc(NC(=O)Nc2ccccc2CCO)cc1 [Example 122]
[1]; [3]
  IC50: 0.5 to 1 µM
other
  melting point: 187 to 188 °C

## Cc1ccccc1CNC(=O)Nc1ccccc1CCO [Example 123]
[1]; [3]
  IC50: 0.5 to 1 µM
other
  melting point: 186 to 188 °C

## Cc1cccc(CNC(=O)Nc2ccccc2CCO)c1 [Example 124]
[1]; [3]
  IC50: 0.5 to 1 µM
other
  melting point: 148 to 150 °C

## Cc1ccc(CNC(=O)Nc2ccccc2CCO)cc1 [Example 125]
[1]; [3]
  IC50: 0.5 to 1 µM
other
  melting point: 181 to 183 °C

## O=C(NCc1ccccc1Cl)Nc1ccccc1CCO [Example 126]
[1]; [3]
  IC50: 0.5 to 1 µM
other
  melting point: 183 to 185 °C

## COc1ccc(CNC(=O)Nc2ccccc2CCO)cc1 [Example 127]
[1]; [3]
  IC50: 0.5 to 1 µM
other
  melting point: 175 to 177 °C

## Cc1cccc(NC(=O)Nc2ccccc2CCO)c1 [Example 129]
[1]; [3]
  IC50: 0.5 to 1 µM
other
  melting point: 186 °C

## O=C(Nc1ccc(F)cc1)Nc1ccccc1CCO [Example 131]
[1]; [3]
  IC50: 0.5 to 1 µM
other
  melting point: 183 °C

## O=C(Nc1cccc(F)c1)Nc1ccccc1CCO [Example 132]
[1]; [3]
  IC50: 0.5 to 1 µM
other
  melting point: 166 °C

## Cc1ccc(NC(=O)Nc2ccccc2CCO)c(C)c1 [Example 133]
[1]; [3]
  IC50: 0.5 to 1 µM
other
  melting point: 181 °C

## COc1ccccc1NC(=O)Nc1ccccc1CCO [Example 134]
[1]; [3]
  IC50: 0.5 to 1 µM
other
  melting point: 154 °C

## COc1cccc(NC(=O)Nc2ccccc2CCO)c1 [Example 135]
[1]; [3]
  IC50: 0.5 to 1 µM
other
  melting point: 169 °C

## COc1ccc(NC(=O)Nc2ccccc2CCO)cc1 [Example 136]
[1]; [3]
  IC50: 0.5 to 1 µM
other
  melting point: 186 °C

## O=C(Nc1ccc(F)cc1F)Nc1ccccc1CCO [Example 145]
[1]; [3]
  IC50: 0.5 to 1 µM
other
  melting point: 174 to 176 °C (dec.)

## CCOc1ccccc1NC(=O)Nc1ccccc1CCO [Example 146]
[1]; [3]
  IC50: 0.5 to 1 µM
other
  melting point: 112 to 114 °C (dec.)

## O=C(Nc1ccccc1CCO)Nc1ccccc1[N+](=O)[O-] [Example 147]
[1]; [3]
  IC50: 0.5 to 1 µM
other
  melting point: 112 to 114 °C

## Cc1ccc(NC(=O)Nc2ccccc2CCO)cc1Cl [Example 148]
[1]; [3]
  IC50: 0.5 to 1 µM
other
  melting point: 195 to 196 °C

## O=C(Nc1ccccc1CCO)Nc1cccc2ccccc12 [Example 149]
[1]; [3]
  IC50: 0.5 to 1 µM
other
  melting point: 188 to 191 °C (dec.)

## COc1ccc(NC(=O)Nc2ccccc2CCO)c(OC)c1 [Example 150]
[1]; [3]
  IC50: 0.5 to 1 µM
other
  melting point: 189 to 190 °C
